Earlier results, collected in patent US20170189402A1, “SOLID DOSAGE FORMS” (AbbVie Inc., priority 2012, published 2017).

Columns and labels:
[1] = administered orally

bioavailability [1]	solubility	SMILES
over 80%		Nc1ccn([C@@H]2CS[C@H](CO)O2)c(=O)n1 [Lamivudine]
	poorly soluble	Cc1cccc(C)c1OCC(=O)N[C@@H](Cc1ccccc1)[C@@H](O)C[C@H](Cc1ccccc1)NC(=O)[C@H](C(C)C)N1CCCNC1=O [lopinavir]
